Data published in ChEMBL document CHEMBL3885861, “Open TG-GATES”.

Species: Rattus norvegicus
Assay: Open TG-GATES - Regimen: Daily Repeat
Assay type: toxicity, organism-based, Sprague-Dawley
Set-up: regimen Daily Repeat, gender Male, age 6 weeks
Conditions: in vivo, po, route gavage; for APTT / Bas / Eos / Fbg / Ht / Lym / MCH / MCHC / MCV / Mono / Neu / PT / Plat / RBC / Ret / WBC / Hb: tissue Blood; for KIDNEY_L / KIDNEY_R / KIDNEY_TOTAL: tissue Kidney; for LIVER: tissue Liver; for ALP / AST / BUN / CRE / Ca / Cl / DBIL / GLC / IP / LDH / Na / PL / RALB / TBIL / TC / TG / TP / gamma-GTP: tissue Plasma
[1] = 0 mg/kg, 72 h, dose level Control, time 3 day
[2] = 0 mg/kg, […], dose level Control, time 7 day
[3] = 0 mg/kg, […], dose level Control, time 14 day
[4] = 0 mg/kg, […], dose level Control, time 28 day
[5] = 10 mg/kg, 72 h, dose level Low, time 3 day
[6] = 10 mg/kg, […], dose level Low, time 7 day
[7] = 10 mg/kg, […], dose level Low, time 14 day
[8] = 10 mg/kg, […], dose level Low, time 28 day
[9] = 30 mg/kg, 72 h, dose level Middle, time 3 day

## CC(=O)N1CCN(c2ccc(OCC3COC(Cn4ccnc4)(c4ccc(Cl)cc4Cl)O3)cc2)CC1 (configuration not stated) [KETOCONAZOLE]
[1]
  TERMINAL_BW: 231 g
  APTT: 20.9 s
  Bas: 0%
  Eos: 0.8%
  Fbg: 294.6 mg/dL
  Ht: 38.3%
  Lym: 82%
  MCH: 21.7 pg
  MCHC: 34.3%
  MCV: 63.3 fL
  Mono: 2.2%
  Neu: 14.2%
  PT: 16.5 s
  Plat: 118.7 x10_4/uL
  RBC: 604.8 x10_4/ul
  Ret: 6.5%
  WBC: 106.4 x10_2/uL
  KIDNEY_L: 1.1 g
  KIDNEY_R: 1.1 g
  KIDNEY_TOTAL: 2.1 g
  LIVER: 10.8 g
  ALP: 1650.6 IU/L
  AST: 68 IU/L
  BUN: 18.6 mg/dL
  CRE: 0.2 mg/dL
  Ca: 10.8 mg/dL
  Cl: 106.2 meq/L
  DBIL: 0 mg/dL
  GLC: 184.2 mg/dL
  IP: 5.9 mg/dL
  LDH: 222.4 IU/L
  Na: 140.2 meq/L
  PL: 142.6 mg/dL
  RALB: 3 g/dL
  TBIL: 0.012 mg/dL
  TC: 71 mg/dL
  TG: 85.2 mg/dL
  TP: 5.6 g/dL
  gamma-GTP: 1.4 IU/L
[2]
  TERMINAL_BW: 269.3 g
  APTT: 22.6 s
  Bas: 0%
  Eos: 1%
  Fbg: 301.6 mg/dL
  Hb: 13.6 g/dL
  Ht: 40.1%
  Lym: 78.4%
  MCH: 21.1 pg
  MCHC: 34%
  Mono: 2%
  Neu: 17.8%
  PT: 16.1 s
  Plat: 91.9 x10_4/uL
  RBC: 645.4 x10_4/ul
  Ret: 5.5%
  WBC: 94.3 x10_2/uL
  KIDNEY_L: 1.2 g
  KIDNEY_R: 1.2 g
  KIDNEY_TOTAL: 2.4 g
  LIVER: 12.2 g
  ALP: 1766.8 IU/L
  AST: 69.2 IU/L
  BUN: 19 mg/dL
  CRE: 0.2 mg/dL
  Ca: 10.8 mg/dL
  Cl: 106.4 meq/L
  DBIL: 0 mg/dL
  GLC: 182.8 mg/dL
  IP: 6.7 mg/dL
  LDH: 176.2 IU/L
  Na: 141.8 meq/L
  PL: 156.8 mg/dL
  RALB: 3.2 g/dL
  TBIL: 0.002 mg/dL
  TC: 80.6 mg/dL
  TG: 102.8 mg/dL
  TP: 5.8 g/dL
  gamma-GTP: 1.2 IU/L
[3]
  TERMINAL_BW: 301.1 g
  APTT: 22.2 s
  Bas: 0%
  Eos: 0.8%
  Fbg: 298 mg/dL
  Hb: 14 g/dL
  Ht: 40.9%
  Lym: 81.4%
  MCH: 20.5 pg
  MCHC: 34.3%
  MCV: 59.8 fL
  Mono: 1.6%
  Neu: 15.4%
  PT: 16.1 s
  Plat: 113.5 x10_4/uL
  RBC: 685 x10_4/ul
  Ret: 4.1%
  WBC: 110.9 x10_2/uL
  KIDNEY_L: 1.1 g
  KIDNEY_R: 1.2 g
  KIDNEY_TOTAL: 2.3 g
  ALP: 1657 IU/L
  AST: 71.2 IU/L
  BUN: 19 mg/dL
  CRE: 0.2 mg/dL
  Ca: 10.3 mg/dL
  Cl: 107.2 meq/L
  DBIL: 0 mg/dL
  GLC: 178.4 mg/dL
  IP: 6.4 mg/dL
  LDH: 207.6 IU/L
  Na: 142.4 meq/L
  PL: 167.6 mg/dL
  RALB: 3 g/dL
  TBIL: 0.002 mg/dL
  TG: 140.8 mg/dL
  TP: 5.8 g/dL
  gamma-GTP: 1 IU/L
[4]
  TERMINAL_BW: 376.7 g
  Bas: 0%
  Eos: 1%
  Fbg: 291.4 mg/dL
  Hb: 14.9 g/dL
  Ht: 43.4%
  Lym: 83.8%
  MCH: 19.1 pg
  MCHC: 34.3%
  MCV: 55.8 fL
  Mono: 1.6%
  Neu: 11.8%
  PT: 17 s
  Plat: 107.7 x10_4/uL
  RBC: 779.8 x10_4/ul
  Ret: 2.5%
  WBC: 126.2 x10_2/uL
  KIDNEY_L: 1.3 g
  KIDNEY_R: 1.4 g
  KIDNEY_TOTAL: 2.7 g
  LIVER: 15.3 g
  ALP: 1167.6 IU/L
  AST: 73.6 IU/L
  BUN: 19.6 mg/dL
  CRE: 0.2 mg/dL
  Ca: 10.3 mg/dL
  Cl: 106.8 meq/L
  DBIL: 0 mg/dL
  GLC: 190.2 mg/dL
  IP: 5.5 mg/dL
  LDH: 168.4 IU/L
  Na: 141.8 meq/L
  PL: 144.4 mg/dL
  RALB: 3.1 g/dL
  TBIL: 0.016 mg/dL
  TC: 66 mg/dL
  TG: 153.2 mg/dL
  TP: 6 g/dL
  gamma-GTP: 1.2 IU/L
[5]
  TERMINAL_BW: 236.3 g
  APTT: 19.5 s
  Bas: 0%
  Eos: 0.8%
  Fbg: 308.2 mg/dL
  Hb: 12.9 g/dL
  Ht: 37.7%
  Lym: 82.6%
  MCH: 21.8 pg
  MCV: 64 fL
  Mono: 2%
  Neu: 13.6%
  PT: 16.3 s
  Plat: 122.8 x10_4/uL
  RBC: 589.4 x10_4/ul
  Ret: 6.6%
  WBC: 82 x10_2/uL
  KIDNEY_L: 1 g
  KIDNEY_R: 1 g
  KIDNEY_TOTAL: 2.1 g
  LIVER: 11.3 g
  ALP: 1629.2 IU/L
  AST: 75 IU/L
  BUN: 18.2 mg/dL
  CRE: 0.2 mg/dL
  Ca: 11 mg/dL
  Cl: 106.6 meq/L
  DBIL: 0 mg/dL
  GLC: 184.8 mg/dL
  IP: 6.6 mg/dL
  LDH: 226 IU/L
  Na: 140.8 meq/L
  PL: 152.6 mg/dL
  RALB: 3 g/dL
  TBIL: 0.006 mg/dL
  TC: 78 mg/dL
  TG: 100.6 mg/dL
  TP: 5.7 g/dL
  gamma-GTP: 1 IU/L
[6]
  TERMINAL_BW: 260.1 g
  APTT: 21.2 s
  Bas: 0%
  Eos: 1.2%
  Fbg: 311 mg/dL
  Hb: 13.6 g/dL
  Ht: 40.3%
  Lym: 80%
  MCH: 21 pg
  MCV: 62.2 fL
  Mono: 2.4%
  Neu: 15.6%
  PT: 16.2 s
  Plat: 111.8 x10_4/uL
  RBC: 648.6 x10_4/ul
  Ret: 5.4%
  WBC: 117 x10_2/uL
  KIDNEY_L: 1.1 g
  KIDNEY_R: 1.1 g
  KIDNEY_TOTAL: 2.1 g
  LIVER: 12.1 g
  ALP: 1544.4 IU/L
  AST: 68.4 IU/L
  BUN: 19 mg/dL
  CRE: 0.2 mg/dL
  Ca: 10.6 mg/dL
  Cl: 107 meq/L
  DBIL: 0 mg/dL
  GLC: 193 mg/dL
  IP: 6.9 mg/dL
  LDH: 228.6 IU/L
  Na: 142 meq/L
  PL: 144 mg/dL
  RALB: 3 g/dL
  TBIL: 0.004 mg/dL
  TC: 71.6 mg/dL
  TG: 120.2 mg/dL
  TP: 5.7 g/dL
  gamma-GTP: 1.2 IU/L
[7]
  TERMINAL_BW: 306.4 g
  APTT: 21.3 s
  Bas: 0%
  Eos: 0.8%
  Fbg: 308.2 mg/dL
  Hb: 13.6 g/dL
  Ht: 40.2%
  Lym: 81.6%
  MCH: 20.3 pg
  MCHC: 33.8%
  MCV: 60.1 fL
  Mono: 1.2%
  Neu: 14.6%
  PT: 15.9 s
  Plat: 118 x10_4/uL
  RBC: 669.2 x10_4/ul
  Ret: 4.4%
  WBC: 116.4 x10_2/uL
  KIDNEY_L: 1.3 g
  KIDNEY_R: 1.3 g
  KIDNEY_TOTAL: 2.5 g
  LIVER: 13.7 g
  ALP: 1416.2 IU/L
  AST: 67.6 IU/L
  BUN: 17.6 mg/dL
  CRE: 0.2 mg/dL
  Ca: 10.6 mg/dL
  Cl: 107 meq/L
  DBIL: 0 mg/dL
  GLC: 182.2 mg/dL
  IP: 6.4 mg/dL
  LDH: 187.6 IU/L
  Na: 143 meq/L
  PL: 155.2 mg/dL
  RALB: 3.1 g/dL
  TBIL: 0.004 mg/dL
  TC: 77.8 mg/dL
  TP: 5.8 g/dL
  gamma-GTP: 1 IU/L
[8]
  TERMINAL_BW: 374.4 g
  APTT: 23.8 s
  Bas: 0%
  Eos: 1%
  Fbg: 308.8 mg/dL
  Hb: 14.8 g/dL
  Ht: 43.5%
  Lym: 80.8%
  MCV: 56.9 fL
  Mono: 1.8%
  Neu: 15.2%
  PT: 16.8 s
  Plat: 108.8 x10_4/uL
  RBC: 764.6 x10_4/ul
  Ret: 2.6%
  WBC: 109.3 x10_2/uL
  KIDNEY_L: 1.4 g
  KIDNEY_R: 1.4 g
  KIDNEY_TOTAL: 2.8 g
  LIVER: 15.6 g
  ALP: 1283.8 IU/L
  AST: 59.2 IU/L
  BUN: 17.8 mg/dL
  CRE: 0.2 mg/dL
  Ca: 10.4 mg/dL
  Cl: 107.6 meq/L
  DBIL: 0 mg/dL
  GLC: 182.4 mg/dL
  IP: 5.4 mg/dL
  LDH: 138.4 IU/L
  Na: 143 meq/L
  PL: 140.6 mg/dL
  RALB: 3.2 g/dL
  TBIL: 0.004 mg/dL
  TC: 69.8 mg/dL
  TG: 121.2 mg/dL
  TP: 6.1 g/dL
  gamma-GTP: 1.2 IU/L
[9]
  TERMINAL_BW: 228.5 g
  APTT: 20.7 s
